US20250129083A1, “IMIDAZOTETRAZINE COMPOUNDS AND TREATMENT OF TMZ-RESISTANT CANCERS” (THE BOARD OF TRUSTEES OF THE UNIVERSITY OF ILLINOIS, priority 2022, published 2025)

Columns and labels:
cancer cells = assay: Rapid cancer cell death phenotype; format: cell-based; settings: relative to TMZ
Description: FIG. 8A-C. Rapid Cancer Cell Death Phenotype.

[1] = cited from earlier work
Brain tissue binding = format: in vitro ADME; settings: 10 uM, 1 h at 37 C in brain tissue homogenate

For C#CCn1nnc2c(Cl)ncn2c1=O [CPZ, 8-chloro-3-(prop-2-yn-1-yl)imidazo[5,1-d][1,2,3,5]tetrazin-4(3H)-one], the “Speed of cell death induction” value (cancer cells) was “induce cell death quickly relative to TMZ”.

In the case of Cn1nnc2c(C(N)=O)ncn2c1=O [TMZ, temozolomide, reference compound], the “Half-life in vivo (human pharmacokinetics)” value ([1]; human patients) is given as 1.5 to 2 h, the “Cerebral spinal fluid concentration as percentage of plasma concentration” value ([1]; humans) is given as “about 20%” and the “Brain tissue binding, insoluble fraction, tissue homogenizer” value (Brain tissue binding) is given as 40 ± 5%. The “Brain tissue binding, insoluble fraction, ultrasonication” value (Brain tissue binding) was 30 ± 3%, the “Brain tissue binding, soluble fraction, tissue homogenizer” value (Brain tissue binding) was 59 ± 5% and the “Brain tissue binding, soluble fraction, ultrasonication” value (Brain tissue binding) was 66 ± 3%.
